Where two headings read alike, the source gives them in different places.
System: Enterococcus faecalis type strain NCTC 775
Assay: Cell lysis experiments with ILs, released DNA quantified by ENT-qPCR
Type: cell-based

Row | Compound | 23S rRNA gene copies in 2.5 μl of the DNA extracts | cell lysis efficiency with varying IL concentrations (IL from 90% (w/v) to 10% (w/v), same extraction procedure) | cell lysis efficiency with varying IL concentrations
1 | CC(=O)[O-].CCn1cc[n+](C)c1 [[C2mim]OAc, 1-Ethyl-3-methylimidazollum acetate] | ~6.48±0.02 | almost steadily decreased with its respective concentration | –
2 | CCCCCC(=O)[O-].C[N+](C)(C)CCO [[Cho]Hex, Choline hexanoate] | ~6.49±0.11 | – | slightly improved towards a concentration of 50% (w/v), only decreasing with lower concentrations of 30% (w/v) and 10% (w/v)

— patent US20210380930A1, “METHODS, APPARATUS AND KITS FOR BACTERIAL CELL LYSIS” (TECHNISCHE UNIVERSITÄT WIEN, priority 2018, published 2021)
